Experimental data: patent US12240862B2, “Inhibitors of peptidylarginine deiminases” (Gilead Sciences, Inc., priority 2020, dated 2025)

Biological target: T1, human PAD4 (Homo sapiens, UniProt Q9UM07)
T1 construct: human PAD4 (NM_012387), A2P663, was PCR amplified; His-SUMO (N, cleaved yes); made in house; host or cells: E. coli BL21(DE3)
Assay: In vitro PAD4 BAEE biochemical assay
Conditions: human PAD4, BAEE substrate; 5 nM PAD4, 2 mM calcium chloride, 3 mM BAEE; geometric mean of multiple experiments
Outline: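 Ammonia release from BAEE deimination monitored by o-phthalaldehyde amine coupling (1 h, 25 °C) after EDTA stop. Final conditions: 5 nM tag-free recombinant human PAD4 (E. coli), 2 mM CaCl2, 3 mM BAEE, pH 7.6 MOPS with DTT; 30 min compound preincubation, then 2 h reaction at 25 °C.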

T1 sequence (Q9UM07 2-663): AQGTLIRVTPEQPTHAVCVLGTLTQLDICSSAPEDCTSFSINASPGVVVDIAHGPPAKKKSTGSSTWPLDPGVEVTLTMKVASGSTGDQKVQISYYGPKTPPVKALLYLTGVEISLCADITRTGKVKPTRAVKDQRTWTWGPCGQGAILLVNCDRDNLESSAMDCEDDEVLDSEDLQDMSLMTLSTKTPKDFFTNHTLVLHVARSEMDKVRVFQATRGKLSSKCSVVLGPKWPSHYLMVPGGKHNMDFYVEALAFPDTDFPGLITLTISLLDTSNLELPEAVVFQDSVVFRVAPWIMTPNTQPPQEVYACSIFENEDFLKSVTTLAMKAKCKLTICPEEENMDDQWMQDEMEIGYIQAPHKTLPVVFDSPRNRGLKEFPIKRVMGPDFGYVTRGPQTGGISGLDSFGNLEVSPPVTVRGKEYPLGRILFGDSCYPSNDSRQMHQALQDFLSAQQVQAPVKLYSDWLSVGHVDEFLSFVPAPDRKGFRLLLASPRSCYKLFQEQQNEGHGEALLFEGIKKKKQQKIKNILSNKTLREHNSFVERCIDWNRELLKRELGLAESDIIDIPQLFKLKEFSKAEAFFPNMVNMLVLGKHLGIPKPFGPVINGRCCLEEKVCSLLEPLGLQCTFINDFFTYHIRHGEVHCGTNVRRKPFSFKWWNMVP

Row | IC50 | SMILES
1 | 126 nM | CS(=O)(=O)N(c1ccc2cc(-c3nc4cc(C(=O)N5[C@H]6CC[C@@H]5[C@H](N)C6)ccn4c3C3CC3)n(CC3CC3)c2n1)C(F)F [Example 386, ~{N}-[2-[7-[(1~{R},2~{R}, 4~{S})-2-amino-7-azabicyclo[2.2.1]heptane-7-carbonyl]-3-cyclopropylimidazo [1,2-a]pyridin-2-yl]-1-(cyclopropylmethyl)pyrrolo [2,3-b]pyridin-6-yl]-~{N}-(difluoromethyl) methanesulfonamide]
2 | 110 nM | COc1cc(C(=O)N2[C@H]3CC[C@@H]2[C@H](N)C3)cc2nc(-c3cc4ccc([C@@H](C)NC(=O)OC(C)C)nc4n3CC3CC3)c(C)n12 [Example 254, propan-2-yl~{N}-[(1~{R})-1-[2-[7-[(1~{R}, 2~{R},4~{S})-2-amino-7-azabicyclo[2.2.1]heptane-7-carbonyl]-5-methoxy-3-methylimidazo [1,2-a]pyridin-2-yl]-1-(cyclopropylmethyl)pyrrolo [2,3-b]pyridin-6-yl]ethyl] carbamate]
3 | 24200 nM | COc1cc(C(=O)N[C@H]2CNCC[C@H]2C)cc2nc(-c3cc4ccc(N(C(F)F)S(C)(=O)=O)nc4n3CC3CC3)c(C)n12 [Example 313, 2-[1-(cyclopropylmethyl)-6-[difluoromethyl (methylsulfonyl)amino]pyrrolo[2,3-b]pyridin-2-yl]-5-methoxy-3-methyl-~{N}-[(3~{R},4~{R})-4-methylpiperidin-3-yl]imidazo[1,2-a] pyridine-7-carboxamide]
4 | 9320 nM | COc1cc(C(=O)N2[C@H]3CC[C@@H]2[C@H](N)C3)cc2nc(-c3cc4ccc(N5CC(c6ccccc6)CCS5(=O)=O)nc4n3CC3CC3)c(C)n12 (some centres unmarked) [Example 453, [(1~{R},2~{R},4~{S})-2-amino-7-azabicyclo [2.2.1]heptan-7-yl]-[2-[1-(cyclopropylmethyl)-6-(1,1-dioxo-4-phenylthiazinan-2-yl)pyrrolo[2,3-b]pyridin-2-yl]-5-methoxy-3-methylimidazo[1,2-a]pyridin-7-yl]methanone]
5 | 72 nM | COc1cc(C(=O)N2[C@H]3CC[C@@H]2[C@H](N)C3)cc2nc(-c3cc4ccc([C@@H](C)Nc5ncccn5)nc4n3CC3CC3)c(C)n12 [Example 265, ((1R,2R,4S)-2-amino-7-azabicyclo[2.2.1]heptan-7-yl)(2-(1-(cyclopropylmethyl)-6-((R)-1-(pyrimidin-2-ylamino)ethyl)-1H-pyrrolo[2,3-b]pyridin-2-yl)-5-methoxy-3-methylimidazo[1,2-a]pyridin-7-yl)methanone]
6 | 143 nM | COc1cc(C(=O)N2[C@H]3CC[C@@H]2[C@H](N)C3)cc2nc(-c3cc4ccc([C@@H](C)NC(=O)C5(F)CC5)nc4n3CC3CC3)c(C)n12 [Example 136, ~{N}-[(1~{R})-1-[2-[7-[(1~{R},2~{R},4~{S})-2-amino-7-azabicyclo[2.2.1]heptane-7-carbonyl]-5-methoxy-3-methylimidazo [1,2-a]pyridin-2-yl]-1-(cyclopropylmethyl)pyrrolo [2,3-b]pyridin-6-yl]ethyl]-1-fluorocyclopropane-1-carboxamide]
7 | 44.3 nM | COc1cc(C(=O)N2[C@H]3CC[C@@H]2[C@H](N)C3)cc2nc(-c3cc4ccc([C@@H](C)NC(=O)c5cnn(C(F)F)c5)nc4n3CC3CC3)c(C)n12 [Example 107]
8 | 34.5 nM | COc1cc(C(=O)N2[C@H]3CC[C@@H]2[C@H](N)C3)cc2nc(-c3cc4ccc([C@@H](C)NC(=O)c5ccncc5)nc4n3CC3CC3)c(C)n12 [Example 119, ~{N}-[(1~{R})-1-[2-[7-[(1~{R},2~{R},4~{S})-2-amino-7-azabicyclo[2.2.1]heptane-7-carbonyl]-5-methoxy-3-methylimidazo [1,2-a]pyridin-2-yl]-1-(cyclopropylmethyl)pyrrolo [2,3-b]pyridin-6-yl]ethyl] pyridine-4-carboxamide]
9 | 71.1 nM | COc1cc(C(=O)N2[C@H]3CC[C@@H]2[C@H](N)C3)cc2nc(-c3cc4ccc([C@@H](C)Nc5cnccn5)nc4n3CC3CC3)c(C)n12 [Example 263, [(1~{R},2~{R},4~{S})-2-amino-7-azabicyclo [2.2.1]heptan-7-yl]-[2-[1-(cyclopropylmethyl)-6-[(1~{R})-1-(pyrazin-2-ylamino)ethyl]pyrrolo [2,3-b]pyridin-2-yl]-5-methoxy-3-methylimidazo[1,2-a]pyridin-7-yl]methanone]
10 | 1780 nM | COc1cc(C(=O)N2[C@H]3CC[C@@H]2[C@@H]2NCCO[C@@H]2C3)cc2nc(-c3cc4ccc([C@@H](C)NC(=O)C56CC(F)(C5)C6)nc4n3CC3CC3)c(C)n12 [Example 13, ~{N}-[(1~{R})-1-[1-(cyclopropylmethyl)-2-[5-methoxy-3-methyl-7-[(1~{R},2~{S},7~{R}, 9~{S})-6-oxa-3,12-diazatricyclo [7.2.1.0^{2,7}]dodecane-12-carbonyl]imidazo[1,2-a]pyridin-2-yl]pyrrolo[2,3-b]pyridin-6-yl]ethyl]-3-fluorobicyclo[1.1.1] pentane-1-carboxamide]
11 | 55.6 nM | COc1cc(C(=O)N2[C@H]3CC[C@@H]2[C@H](N)C3)cc2nc(-c3cc4ccc([C@@H](C)NC(=O)N(C(C)C)C(C)C)nc4n3CC3CC3)c(C)n12 [Example 236, 3-[(1~{R})-1-[2-[7-[(1~{R},2~{R},4~{S})-2-amino-7-azabicyclo[2.2.1]heptane-7-carbonyl]-5-methoxy-3-methylimidazo [1,2-a]pyridin-2-yl]-1-(cyclopropylmethyl)pyrrolo [2,3-b]pyridin-6-yl]ethyl]-1,1-di(propan-2-yl)urea]
12 | 151 nM | COc1nn(C)cc1C(=O)N[C@H](C)c1ccc2cc(-c3nc4cc(C(=O)N5[C@H]6CC[C@@H]5[C@H](N)C6)cc(OC)n4c3C)n(CC3CC3)c2n1 [Example 26, ~{N}-[(1~{R})-1-[2-[7-[(1~{R},2~{R},4~{S})-2-amino-7-azabicyclo [2.2.1]heptane-7-carbonyl]-5-methoxy-3-methylimidazo [1,2-a]pyridin-2-yl]-1-(cyclopropylmethyl)pyrrolo[2,3-b]pyridin-6-yl]ethyl]-3-methoxy-1-methylpyrazole-4-carboxamide]
13 | 108 nM | COc1cc(C(=O)N2[C@H]3CC[C@@H]2[C@H](N)C3)cc2nc(-c3cc4ccc(C(C)CN5CCOCC5)nc4n3CC3CC3)c(C)n12 (some centres unmarked) [Example 543, [(1~{R},2~{R},4~{S})-2-amino-7-azabicyclo [2.2.1]heptan-7-yl]-[2-[1-(cyclopropylmethyl)-6-(1-morpholin-4-ylpropan-2-yl)pyrrolo[2,3-b]pyridin-2-yl]-5-methoxy-3-methylimidazo [1,2-a]pyridin-7-yl] methanone]
14 | 33.4 nM | COc1cc(C(=O)N2[C@H]3CC[C@@H]2[C@H](N)C3)cc2nc(-c3cc4ccc([C@@H](C)NC(=O)c5cnco5)nc4n3CC3CC3)c(C)n12 [Example 117, ~{N}-[(1~{R})-1-[2-[7-[(1~{R},2~{R},4~{S})-2-amino-7-azabicyclo[2.2.1]heptane-7-carbonyl]-5-methoxy-3-methylimidazo [1,2-a]pyridin-2-yl]-1-(cyclopropylmethyl)pyrrolo [2,3-b]pyridin-6-yl]ethyl]-1,3-oxazole-5-carboxamide]
15 | 55.5 nM | COc1cc(C(=O)N2[C@H]3CC[C@@H]2[C@H](N)C3)cc2nc(-c3cc4ccc([C@@H](C)NC(=O)N[C@H](C)c5cccnc5)nc4n3CC3CC3)c(C3CC3)n12 [Example 218, 1-[(1~{R})-1-[2-[7-[(1~{R},2~{R},4~{S})-2-amino-7-azabicyclo[2.2.1]heptane-7-carbonyl]-3-cyclopropyl-5-methoxyimidazo [1,2-a]pyridin-2-yl]-1-(cyclopropylmethyl)pyrrolo [2,3-b]pyridin-6-yl]ethyl]-3-[(1~{R})-1-pyridin-3-ylethyl]urea]
16 | 43.5 nM | COc1cc(C(=O)N2[C@H]3CC[C@@H]2[C@H](N)C3)cc2nc(-c3cc4ccc([C@@H](C)NC(=O)C5(O)CCC5)nc4n3CC3CC3)c(C)n12 [Example 95, ~{N}-[(1~{R})-1-[2-[7-[(1~ {R},2~{R},4~{S})-2-amino-7-azabicyclo[2.2.1]heptane-7-carbonyl]-5-methoxy-3-methylimidazo[1,2-a]pyridin-2-yl]-1-(cyclopropylmethyl)pyrrolo [2,3-b]pyridin-6-yl]ethyl]-1-hydroxycyclobutane-1-carboxamide]
17 | 46 nM | COc1cc(C(=O)N2[C@H]3CC[C@@H]2[C@H](N)C3)cc2nc(-c3cc4ccc([C@@H](C)NC(=O)N5CCC(F)(F)CC5)nc4n3CC3CC3)c(C)n12 [Example 207, ~{N}-[(1~{R})-1-[2-[7-[(1~{R},2~{R},4~{S})-2-amino-7-azabicyclo[2.2.1]heptane-7-carbonyl]-5-methoxy-3-methylimidazo [1,2-a]pyridin-2-yl]-1-(cyclopropylmethyl)pyrrolo [2,3-b]pyridin-6-yl]ethyl]-4,4-difluoropiperidine-1-carboxamide]
18 | 296 nM | COc1ccc(-c2ccc3cc(-c4nc5cc(C(=O)N6[C@H]7CC[C@@H]6[C@H](N)C7)cc(OC)n5c4C)n(CC4CC4)c3n2)c(C)n1 [Example 556, [(1~{R},2~{R},4~{S})-2-amino-7-azabicyclo [2.2.1]heptan-7-yl]-[2-[1-(cyclopropylmethyl)-6-(6-methoxy-2-methylpyridin-3-yl)pyrrolo[2,3-b]pyridin-2-yl]-5-methoxy-3-methylimidazo[1,2-a]pyridin-7-yl]methanone]
19 | 332 nM | COc1cc(C(=O)N2[C@H]3CC[C@@H]2[C@H](N)C3)cc2nc(-c3cc4ccc(-c5cncc(F)c5C)nc4n3CC3CC3)c(C)n12 [Example 564, [(1~{R},2~{R},4~{S})-2-amino-7-azabicyclo [2.2.1]heptan-7-yl]-[2-[1-(cyclopropylmethyl)-6-(5-fluoro-4-methylpyridin-3-yl)pyrrolo [2,3-b]pyridin-2-yl]-5-methoxy-3-methylimidazo[1,2-a]pyridin-7-yl]methanone]
20 | 348 nM | COc1ccccc1C(=O)N[C@H](C)c1ccc2cc(-c3nc4cc(C(=O)N5[C@H]6CC[C@@H]5[C@H](N)C6)cc(OC)n4c3C)n(CC3CC3)c2n1 [Example 17]
